Measured values: patent US20260258369A1, “GENERATION OF BRANCHING URETERIC BUD AND COLLECTING DUCT ORGANOIDS FROM HUMAN PLURIPOTENT STEM CELLS” (The Brigham and Women's Hospital, Inc., priority 2023, published 2026)
“Also recorded” adds a separate entry of the source.

Experiments:
[1] = tested on: CD organoid-derived cells; assay: Aldosterone response of transepithelial current in CD organoid-derived cells; assay type: cell-based, human; conditions: 24 hours; for increase in amiloride-sensitive current: aldosterone 10-100 nM, no dexamethasone
[2] = target: T1, V-type ATPase (Homo sapiens, UniProt P27449); assay: Ussing chamber short-circuit current in FOXI1-induced CD cells; conditions: closed circuit
[3] = target: T2, ENaC (Homo sapiens, UniProt P37088+P51168+P51170); conditions: amiloride 10 μM, open circuit
T2 sequence (P37088 1-669): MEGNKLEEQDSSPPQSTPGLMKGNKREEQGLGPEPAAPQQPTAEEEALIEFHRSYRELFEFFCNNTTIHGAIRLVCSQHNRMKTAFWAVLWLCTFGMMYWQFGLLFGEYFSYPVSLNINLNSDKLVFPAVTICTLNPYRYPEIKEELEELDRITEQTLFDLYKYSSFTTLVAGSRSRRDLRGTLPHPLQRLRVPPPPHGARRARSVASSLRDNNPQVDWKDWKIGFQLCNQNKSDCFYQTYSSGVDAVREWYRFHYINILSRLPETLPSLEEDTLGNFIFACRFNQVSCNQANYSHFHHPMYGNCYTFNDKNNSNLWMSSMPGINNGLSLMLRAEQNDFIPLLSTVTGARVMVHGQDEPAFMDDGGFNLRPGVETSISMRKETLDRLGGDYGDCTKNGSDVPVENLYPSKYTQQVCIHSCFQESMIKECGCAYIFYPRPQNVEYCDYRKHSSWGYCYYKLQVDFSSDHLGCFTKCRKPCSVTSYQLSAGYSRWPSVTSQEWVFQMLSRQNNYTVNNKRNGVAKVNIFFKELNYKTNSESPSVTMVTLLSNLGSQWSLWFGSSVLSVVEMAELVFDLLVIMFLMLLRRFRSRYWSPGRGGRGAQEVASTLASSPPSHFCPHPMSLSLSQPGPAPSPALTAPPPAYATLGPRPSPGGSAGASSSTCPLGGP
T2 sequence (P51168 1-640): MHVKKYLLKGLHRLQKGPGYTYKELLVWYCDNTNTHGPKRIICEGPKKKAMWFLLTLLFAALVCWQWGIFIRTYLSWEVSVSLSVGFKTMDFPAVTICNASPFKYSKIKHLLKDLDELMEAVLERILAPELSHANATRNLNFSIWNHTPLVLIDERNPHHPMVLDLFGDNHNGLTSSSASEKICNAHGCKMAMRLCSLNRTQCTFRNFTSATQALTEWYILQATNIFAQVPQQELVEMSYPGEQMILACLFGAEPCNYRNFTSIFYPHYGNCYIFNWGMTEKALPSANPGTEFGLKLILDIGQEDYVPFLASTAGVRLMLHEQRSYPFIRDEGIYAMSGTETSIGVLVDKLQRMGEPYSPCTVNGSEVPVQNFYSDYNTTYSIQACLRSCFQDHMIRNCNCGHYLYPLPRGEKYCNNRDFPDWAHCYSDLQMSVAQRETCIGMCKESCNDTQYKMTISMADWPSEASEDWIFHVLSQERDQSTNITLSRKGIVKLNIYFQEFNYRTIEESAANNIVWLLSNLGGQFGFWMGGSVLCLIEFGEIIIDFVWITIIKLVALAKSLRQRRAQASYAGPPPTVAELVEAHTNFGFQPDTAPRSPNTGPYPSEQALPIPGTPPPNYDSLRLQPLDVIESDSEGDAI
T2 sequence (P51170 1-649): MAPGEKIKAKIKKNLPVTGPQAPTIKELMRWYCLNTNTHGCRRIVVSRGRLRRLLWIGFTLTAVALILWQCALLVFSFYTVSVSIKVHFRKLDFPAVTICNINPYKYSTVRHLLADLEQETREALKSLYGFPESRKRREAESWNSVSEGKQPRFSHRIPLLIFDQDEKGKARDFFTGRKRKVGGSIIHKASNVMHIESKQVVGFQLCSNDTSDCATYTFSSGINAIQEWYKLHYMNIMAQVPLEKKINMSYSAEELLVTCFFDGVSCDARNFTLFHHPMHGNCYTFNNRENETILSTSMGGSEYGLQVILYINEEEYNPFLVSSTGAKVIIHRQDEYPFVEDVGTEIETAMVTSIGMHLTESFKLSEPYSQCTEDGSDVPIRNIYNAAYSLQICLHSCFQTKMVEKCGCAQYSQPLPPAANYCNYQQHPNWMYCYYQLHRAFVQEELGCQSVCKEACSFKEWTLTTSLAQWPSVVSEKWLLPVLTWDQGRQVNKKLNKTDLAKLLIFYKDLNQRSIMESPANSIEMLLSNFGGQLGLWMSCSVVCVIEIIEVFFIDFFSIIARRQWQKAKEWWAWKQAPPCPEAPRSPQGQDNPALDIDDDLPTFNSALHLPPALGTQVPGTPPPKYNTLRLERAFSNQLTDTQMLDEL

[4] = target: T2, ENaC; assay: Ussing chamber short-circuit current (Isc) recordings in CD organoid-derived cells; assay type: cell-based; design: while the alpha subunit (SCNN1A) was expressed at lower levels; we confirmed expression at the protein level using an antibody specific to SCNN1B; the beta and gamma subunits were most abundant transcriptionally; endogenous in cells; host or cells: 2D cell line derived from hPSC-derived collecting duct organoids (principal cells), grown on transwell / Snapwell inserts
[5] = tested on: V-type ATPase; assay: Transwell open-circuit voltage and calculated current in FOXI1-induced (doxycycline-treated) CD cells; assay type: cell-based, human; conditions: open circuit transwell, amiloride 10 μM
[6] = target: T1, V-type ATPase; assay: as above; assay type: cell-based; conditions: bafilomycin 10 nM, added after amiloride, open circuit

C[C@]12CCC(=O)C=C1CC[C@@H]1[C@@H]2[C@@H](O)C[C@]2(C=O)[C@@H](C(=O)CO)CC[C@@H]12 [Aldosterone, aldosterone]
increase in amiloride-sensitive current [1]: ~ 2.5 fold | increase in amiloride-sensitive current ([1]; listed as aldosterone): approximately 2.5 fold | transepithelial voltage and current ([1]; varying concentrations of aldosterone): dose-dependent increase

N=C(N)NC(=O)c1nc(Cl)c(N)nc1N [amiloride]
short-circuit current in FOXI1-induced cells, amiloride [2]: small increase in current | transepithelial resistance [3]: raising the transepithelial resistance | transepithelial voltage and current ([3]; within several minutes): completely abolished | residual short-circuit current after raising the concentration ([4]; amiloride 100 μM, Ussing chamber): eliminated the small amount of residual current; also recorded: completely abolished | inhibition at 10 µM ([4]; read-out: inhibition of short-circuit current): > 95% | amiloride sensitivity of FOXI1-induced cells [5]: largely lost sensitivity

CO/C1=C\C(C)=C\[C@@H](C)[C@@H](O)[C@@H](C)C/C(C)=C/C=C/[C@H](OC)[C@@H]([C@@H](C)[C@@H](O)[C@H](C)[C@@]2(O)C[C@@H](O)[C@H](C)[C@@H](C(C)C)O2)OC1=O [bafilomycin, bafilomycin-A1]
short-circuit current in FOXI1-induced cells, bafilomycin [2]: near complete inhibition of the current | voltage and calculated current in FOXI1-induced cells [6]: completely suppressed
